Marks after values point to notes of the source that are not given here.

The subject of experiment [1] is mitochondrial carnitine palmitoyltransferase-II. Description: Mitochondrial carnitine palmitoyltransferase-II activity after feeding. The class given is in vivo, rat. As to conditions: mitochondrial fraction of liver; fed 1 mmole TTA/day/kg, 6 days; control 8.32 ± 1.42. The source says:
(§1) Male wistar rats (4-5 rats in each treatment group) were fed TTA, TTA-PC or TTA-TAG at equimolar doses of TTA (1 mmole/day/kg body weight) for 6 days. Control rats received only 0.5% CMC. The rats were sacrificed and evaluated for lipid lowering effects, increased fatty acid oxidation, and activity of key mitochondrian enzymes, carnitine palmitoyltransferase-II, 3-hydroxy-3-methylglutharyl-CoA synthase and fatty acyl-CoA oxidases.
(§2) Male Wistar Charles River rats weighing 200-250 g at the start of the experiment were housed in metal wire cages in a temperature (22±1° C.) and light-controlled (light from 7.00 a.m. to 7.00 p.m.) room. They were given free access to chow and water. […] Weight gain and food intake were recorded daily. […]
(§3) Freshly isolated livers from individual male wistar rats, were homogenised in ice-cold sucrose buffer (0.25 M sucrose, 10 mM HEPES (pH 7.4) and 2 mM EDTA). […] Acid soluble products were measured in post-nuclear fractions, using [1-^14C]-palmitoyl-CoA (Radiochemical Centre, Amersham, England) as substrates as described in literature.^15 Carnitine palmitoyltransferase-II activities were measured in the mitochondrial fraction essentially as described by Bremer^16 and 3-hydroxy-3-methylglutharyl-CoA synthase was measured according to Clinkenbeard et al.^17 in the post-nuclear fraction. […]

The subject of experiment [2] is male Wistar rats. Description: Effect of esterified and non-esterified TTA on hepatic triacylglycerol content. The class given is in vivo, rat. As to conditions: 6 days; for hepatic Triacylglycerol content: fed 1 mmole TTA/day/kg body weight, control 3.71 ± 0.50.
Source text: as §1
(§4) Male Wistar Charles River rats weighing 200-250 g at the start of the experiment were housed in metal wire cages in a temperature (22±1° C.) and light-controlled (light from 7.00 a.m. to 7.00 p.m.) room. They were given free access to chow and water. They were fed a Standard Laboratory Rat Chow R-34-EWOS-ALAB (EWOS Sweden) grower rat maintenance chow. Two rats were housed per cage. The animals were acclimatized for at least 5 days before the start of the experiments. Weight gain and food intake were recorded daily. TTA and esterified TFAs (1,2-Di(1,2-Di(tetradecylthioacetoyl)-sn -glycero-3-phosphocholine (TTA-PC) and Glyceryl 1,2,3-Tri(tetradecylthioacetate) (triacylglycerol) (TTA-TAG)) were suspended in 0.5% carboxymethylcellulose (CMC) and administered by gastric intubation in a final volume of 0.8-1.2 ml once a day for 6 days.

The subject of experiment [3] is 3-Hydroxy-3-methylglutharyl-CoA synthase. Description: 3-Hydroxy-3-methylglutharyl-CoA synthase activity in rat liver homogenate after feeding. As to conditions: fed 1 mmole TTA/day/kg, 6 days; for 3-Hydroxy-3-methylglutharyl-CoA synthase Enzyme activity: rat liver homogenate, control 28.23 ± 4.43. It counts as in vivo.
Source text: as §1
Male Wistar Charles River rats weighing 200-250 g at the start of the experiment were housed in metal wire cages in a temperature (22±1° C.) and light-controlled (light from 7.00 a.m. to 7.00 p.m.) room. They were given free access to chow and water. They were fed a Standard Laboratory Rat Chow R-34-EWOS-ALAB (EWOS Sweden) grower rat maintenance chow. Two rats were housed per cage. The animals were acclimatized for at least 5 days before the start of the experiments. Weight gain and food intake were recorded daily. […]
Freshly isolated livers from individual male wistar rats, were homogenised in ice-cold sucrose buffer (0.25 M sucrose, 10 mM HEPES (pH 7.4) and 2 mM EDTA). […] Acid soluble products were measured in post-nuclear fractions, using [1-^14C]-palmitoyl-CoA (Radiochemical Centre, Amersham, England) as substrates as described in literature.^15 Carnitine palmitoyltransferase-II activities were measured in the mitochondrial fraction essentially as described by Bremer^16 and 3-hydroxy-3-methylglutharyl-CoA synthase was measured according to Clinkenbeard et al.^17 in the post-nuclear fraction. Fatty acyl-CoA oxidase was measured in the post-nuclear fraction by the coupled assay described by Small et al.^18 The production of hydrogen peroxide was measured by monitoring the increase in dichlorofluorescein absorbance in the presence of palmitoyl-CoA.

Experiment [4] has as its system male Wistar rats. Kind of experiment: Effect of esterified and non-esterified TTA on plasma lipids, fed for 6 days. It counts as in vivo, rat. As to conditions: for plasma Triacylglycerol / plasma Cholesterol: fed at equimolar doses of TTA, 1 mmole/day/kg body weight; for plasma Triacylglycerol: control (0.5% CMC) 1.20 ± 0.35; for plasma Cholesterol: control (0.5% CMC) 1.84 ± 0.25.
Source text: as §1, §4
At the end of the experiments the animals were anaesthetized with Fluorane (0.4 ml/100 g body weight) and cardiac puncture was performed to obtain blood samples in EDTA containing vacutainers. Plasma was prepared and triacylglycerol and cholesterol were measured using the Monotest enzymatic kit (Boehringer Mannheim, Germany).

Experiment [5] relates to Fatty acyl-CoA oxidase. Description: Fatty acyl-CoA oxidase activity in rat liver homogenate after feeding. The class given is in vivo. As to conditions: fed 1 mmole TTA/day/kg, 6 days, control 16.50 ± 4.74.
Source text: as §1, §2, §3

Experiment [6] relates to Palmitoyl-CoA oxidation in rat liver homogenate. Kind of experiment: Palmitoyl-CoA oxidation in rat liver homogenate after feeding. The class given is in vivo. The following applies: fed 1 mmole TTA/day/kg, 6 days, control 0.75 ± 0.06.
Source text: as §1, §2, §3

In the case of `CCCCCCCCCCCCCCSCC(=O)OCC(COC(=O)CSCCCCCCCCCCCCCC)OC(=O)CSCCCCCCCCCCCCCC` [TTA-TAG, 1,2,3-Tritetradecylthioacetoyl-sn-glycerol], the “carnitine palmitoyltransferase-II Enzyme activity” value in experiment [1] is given as 17.88 ± 4.37^a nmol/mg/min. Moreover, the “hepatic Triacylglycerol content” value in experiment [2] is on record as 2.88 ± 0.50^a μmol/mg protein. Further, the “3-Hydroxy-3-methylglutharyl-CoA synthase Enzyme activity” value in experiment [3] is listed as 40.35 ± 6.16^a nmol/mg/min. Moreover, in experiment [4], the “plasma Triacylglycerol” value is 0.56 ± 0.21^a mmol/L and the “plasma Cholesterol” value was 1.18 ± 0.12^a mmol/L. The “Fatty acyl-CoA oxidase Enzyme activity” value in experiment [5] is recorded as 49.87 ± 22.51^a nmol/mg/min. The Palm-CoA oxidised in experiment [6] is given as 1.37 ± 0.08^a nmol/mg/min.

With `CCCCCCCCCCCCCCSCC(=O)OC[C@H](COP(=O)([O-])OCC[N+](C)(C)C)OC(=O)CSCCCCCCCCCCCCCC` [TTA-PC, 1,2-ditetradecylthioacetoyl-sn-glycero-3-phosphocholine], the “carnitine palmitoyltransferase-II Enzyme activity” value in experiment [1] is recorded as 31.96 ± 2.63^a,b nmol/mg/min. Moreover, the “hepatic Triacylglycerol content” value in experiment [2] is listed as 2.53 ± 0.43^a μmol/mg protein. Besides, the “decrease in the hepatic triacylglycerol level compared to the control (largest decrease)” value in experiment [2] (fed 1 mmole TTA/day/kg) was 30%. In experiment [3], the “increased 3-hydroxy-3-methylglutharyl-CoA synthase activity relative to that after feeding non-esterified TTA” value is “more than three times as large” and the “3-Hydroxy-3-methylglutharyl-CoA synthase Enzyme activity” value is 97.77 ± 20.51^a,b nmol/mg/min. Further, the “decrease in plasma triacylglycerol and cholesterol levels compared to the control (largest decrease)” value in experiment [4] (fed 1 mmole TTA/day/kg) is given as 60%. In experiment [4], the “plasma Triacylglycerol” value is listed as 0.47 ± 0.21^a,b mmol/L and the “plasma Cholesterol” value is given as 0.74 ± 0.20^a mmol/L. Moreover, the “Fatty acyl-CoA oxidase Enzyme activity” value in experiment [5] was 129.48 ± 15.08^a,b nmol/mg/min. The Palm-CoA oxidised in experiment [6] is 1.39 ± 0.15^a nmol/mg/min.

The record behind these values is US8178713B2, “Sulfur-containing phospholipid derivatives” (Pronovo Biopharma Norge AS, priority 2002, dated 2012).
